Measurements: US9708318B2, “Bicyclic heterocycles as FGFR4 inhibitors” (Incyte Corporation, priority 2015, dated 2017)
Like-named read-outs stand apart in the source and are kept apart here.

How the values were obtained:
FGFR3 enzyme = FGFR3 enzyme (Homo sapiens (Human), UniProt P22607); assay: FGFR Enzymatic Assay (FRET peptide phosphorylation), FGFR3; type: biochemical; details: for FGFR1/FGFR3 IC50 ratio / FGFR4/FGFR3 IC50 ratio: FGFR3 selectivity; for IC50: read-out: FGFR3 IC50
Method: (§1) The inhibitor potency of the exemplified compounds was measured in an enzyme assay that measures peptide phosphorylation using FRET measurements to detect product formation. Inhibitors were serially diluted in DMSO and a volume of 0.5 μL was transferred to the wells of a 384-well plate.
(§2) GraphPad prism3 was used to analyze the data.

FGFR1 = FGFR1 (Homo sapiens (Human), UniProt P11362); assay: FGFR Enzymatic Assay (FRET peptide phosphorylation), FGFR1
FGFR4 = FGFR4 (Homo sapiens (Human), UniProt P22455); assay: FGFR Enzymatic Assay (FRET peptide phosphorylation), FGFR4; type: biochemical; details: for FGFR1/FGFR4 IC50 ratio / FGFR2/FGFR4 IC50 ratio / FGFR3/FGFR4 IC50 ratio: FGFR4 selectivity
Method: as §1
(§3) The enzymes were purchased from Millipore or Invitrogen.
as §2

FGFR2 = FGFR2 (Homo sapiens (Human), UniProt P21802); assay: FGFR Enzymatic Assay (FRET peptide phosphorylation), FGFR2; type: biochemical
Method: as §1, §3, §2

[1] = FGFR1 IC50 (nM), pre-incubated for 4 hours
[2] = pre-incubated for 5 to 10 minutes
[3] = read-out: FGFR1 IC50, pre-incubated for 5 to 10 minutes
[4] = read-out: FGFR1 IC50, pre-incubated for 4 hours

Sequence of FGFR3 enzyme (P22607 23-806): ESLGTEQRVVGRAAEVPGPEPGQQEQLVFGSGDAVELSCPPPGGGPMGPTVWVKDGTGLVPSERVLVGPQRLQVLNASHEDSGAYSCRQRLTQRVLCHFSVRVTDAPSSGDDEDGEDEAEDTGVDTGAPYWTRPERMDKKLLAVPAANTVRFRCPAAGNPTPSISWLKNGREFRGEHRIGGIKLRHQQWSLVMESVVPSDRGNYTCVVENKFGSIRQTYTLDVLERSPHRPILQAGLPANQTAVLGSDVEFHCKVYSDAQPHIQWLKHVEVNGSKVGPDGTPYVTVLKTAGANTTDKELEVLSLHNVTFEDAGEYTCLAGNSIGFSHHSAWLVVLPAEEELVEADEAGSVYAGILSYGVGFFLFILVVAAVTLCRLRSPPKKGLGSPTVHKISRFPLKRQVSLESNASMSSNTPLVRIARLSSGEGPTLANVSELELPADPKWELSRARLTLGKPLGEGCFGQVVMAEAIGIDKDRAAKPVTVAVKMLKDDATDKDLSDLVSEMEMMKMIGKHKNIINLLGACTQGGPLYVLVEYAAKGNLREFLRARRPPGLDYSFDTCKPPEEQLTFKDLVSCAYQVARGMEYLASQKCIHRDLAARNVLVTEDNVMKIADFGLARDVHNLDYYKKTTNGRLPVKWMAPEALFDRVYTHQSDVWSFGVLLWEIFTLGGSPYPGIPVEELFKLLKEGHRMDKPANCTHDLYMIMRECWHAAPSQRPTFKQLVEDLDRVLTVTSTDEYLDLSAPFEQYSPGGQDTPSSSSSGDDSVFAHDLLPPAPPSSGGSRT
Sequence of FGFR1 (P11362 22-822): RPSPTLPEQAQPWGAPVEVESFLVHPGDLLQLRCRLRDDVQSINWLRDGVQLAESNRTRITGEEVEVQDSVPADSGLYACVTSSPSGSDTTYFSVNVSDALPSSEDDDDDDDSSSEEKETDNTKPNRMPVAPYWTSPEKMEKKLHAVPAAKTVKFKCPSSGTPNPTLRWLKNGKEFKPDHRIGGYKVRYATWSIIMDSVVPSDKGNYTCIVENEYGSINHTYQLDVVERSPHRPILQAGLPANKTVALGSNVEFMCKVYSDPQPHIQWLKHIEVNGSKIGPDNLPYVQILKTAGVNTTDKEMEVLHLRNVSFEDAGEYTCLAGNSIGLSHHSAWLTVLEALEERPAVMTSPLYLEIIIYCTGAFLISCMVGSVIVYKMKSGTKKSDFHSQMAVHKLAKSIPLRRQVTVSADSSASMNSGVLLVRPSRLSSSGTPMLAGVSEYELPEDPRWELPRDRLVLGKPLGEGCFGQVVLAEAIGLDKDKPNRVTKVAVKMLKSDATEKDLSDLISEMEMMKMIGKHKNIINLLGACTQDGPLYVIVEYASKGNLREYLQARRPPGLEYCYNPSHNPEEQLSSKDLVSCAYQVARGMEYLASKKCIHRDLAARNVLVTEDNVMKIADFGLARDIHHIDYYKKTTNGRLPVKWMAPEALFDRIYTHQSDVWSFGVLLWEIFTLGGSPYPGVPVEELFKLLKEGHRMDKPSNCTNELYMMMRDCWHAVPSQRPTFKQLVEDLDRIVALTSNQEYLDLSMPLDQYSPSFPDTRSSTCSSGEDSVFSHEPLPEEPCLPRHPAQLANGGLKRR
Sequence of FGFR2 (P21802 22-821): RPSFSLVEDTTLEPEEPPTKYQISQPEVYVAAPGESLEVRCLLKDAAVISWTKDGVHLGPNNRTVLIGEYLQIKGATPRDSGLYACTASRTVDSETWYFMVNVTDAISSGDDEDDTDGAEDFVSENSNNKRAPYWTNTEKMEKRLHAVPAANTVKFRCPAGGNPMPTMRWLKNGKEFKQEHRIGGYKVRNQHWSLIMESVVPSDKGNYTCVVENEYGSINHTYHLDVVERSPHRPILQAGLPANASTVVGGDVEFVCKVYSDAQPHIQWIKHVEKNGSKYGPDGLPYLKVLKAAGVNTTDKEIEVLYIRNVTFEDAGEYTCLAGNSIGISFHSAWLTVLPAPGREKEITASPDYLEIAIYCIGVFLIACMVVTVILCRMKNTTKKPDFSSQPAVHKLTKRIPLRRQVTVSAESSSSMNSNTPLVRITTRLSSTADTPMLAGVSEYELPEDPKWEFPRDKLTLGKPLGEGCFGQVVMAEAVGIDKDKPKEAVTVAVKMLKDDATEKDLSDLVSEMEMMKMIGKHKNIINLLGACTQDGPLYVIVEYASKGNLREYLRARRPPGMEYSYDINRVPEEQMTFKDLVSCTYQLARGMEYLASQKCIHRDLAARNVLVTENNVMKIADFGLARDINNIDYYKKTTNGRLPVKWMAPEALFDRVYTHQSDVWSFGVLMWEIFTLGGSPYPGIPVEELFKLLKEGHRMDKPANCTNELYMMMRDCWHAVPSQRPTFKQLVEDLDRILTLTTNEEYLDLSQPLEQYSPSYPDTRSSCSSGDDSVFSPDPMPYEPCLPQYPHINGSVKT
Sequence of FGFR4 (P22455 22-802): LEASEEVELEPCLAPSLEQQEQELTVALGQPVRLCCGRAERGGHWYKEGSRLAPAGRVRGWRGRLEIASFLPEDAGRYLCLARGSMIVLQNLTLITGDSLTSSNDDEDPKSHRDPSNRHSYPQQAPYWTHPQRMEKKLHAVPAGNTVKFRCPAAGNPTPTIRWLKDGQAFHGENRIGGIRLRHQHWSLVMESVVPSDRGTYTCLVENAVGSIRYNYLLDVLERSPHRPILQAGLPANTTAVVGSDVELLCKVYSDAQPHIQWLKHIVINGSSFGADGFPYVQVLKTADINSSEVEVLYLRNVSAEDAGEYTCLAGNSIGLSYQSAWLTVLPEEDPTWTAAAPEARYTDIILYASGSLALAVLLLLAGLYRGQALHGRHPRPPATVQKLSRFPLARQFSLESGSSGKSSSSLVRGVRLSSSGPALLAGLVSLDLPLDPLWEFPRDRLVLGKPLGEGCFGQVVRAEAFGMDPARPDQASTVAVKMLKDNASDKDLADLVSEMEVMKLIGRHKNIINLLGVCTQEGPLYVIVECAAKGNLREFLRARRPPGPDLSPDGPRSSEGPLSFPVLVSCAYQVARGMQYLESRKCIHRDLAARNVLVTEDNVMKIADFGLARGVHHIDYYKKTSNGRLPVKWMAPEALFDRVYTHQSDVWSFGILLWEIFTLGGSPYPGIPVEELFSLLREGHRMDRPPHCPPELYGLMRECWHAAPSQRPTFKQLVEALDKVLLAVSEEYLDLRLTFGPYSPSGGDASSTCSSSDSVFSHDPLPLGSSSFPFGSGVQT

Compound | FGFR1/FGFR3 IC50 ratio (FGFR3 enzyme; pre-incubated for 4 hours) | FGFR4/FGFR3 IC50 ratio (FGFR3 enzyme; pre-incubated for 4 hours) | IC50 (FGFR3 enzyme; pre-incubated for 4 hours) [nM] | IC50 (FGFR1; [1]) [nM] | IC50 (FGFR4; pre-incubated for 4 hours) [nM] | IC50 (FGFR2; pre-incubated for 4 hours) [nM] | IC50 (FGFR3 enzyme; [2]) [nM] | IC50 (FGFR1; [3]) [nM] | IC50 (FGFR1; [4]) [nM] | FGFR1/FGFR4 IC50 ratio (FGFR4; [2]) | FGFR2/FGFR4 IC50 ratio (FGFR4; [2]) | FGFR3/FGFR4 IC50 ratio (FGFR4; [2]) | FGFR1/FGFR4 IC50 ratio (FGFR4; pre-incubated for 4 hours) | FGFR2/FGFR4 IC50 ratio (FGFR4; pre-incubated for 4 hours) | FGFR3/FGFR4 IC50 ratio (FGFR4; pre-incubated for 4 hours) | IC50 (FGFR4; [2]) [nM] | IC50 (FGFR2; [2]) [nM]
COc1cc(OC)c(F)c(N2Cc3cnc(-c4cn(C)nc4C)cc3N(CC3CC3)C2=O)c1F [Example 29, 1-(cyclopropylmethyl)-3-(2,6-difluoro-3,5-dimethoxyphenyl)-7-(1,3-dimethyl-1H-pyrazol-4-yl)-3,4-dihydropyrido[4,3-d]pyrimidin-2(1H)-one] | >1 | >5 | < 10 | 10 to 30 | 10 to 30 | < 10 | – | – | – | – | – | – | – | – | – | – | –
COc1cc(OC)c(F)c(N2Cc3cnc(-c4cc(N)cnc4C)cc3C3(CC3)C2=O)c1F [Example 7, 6′-(5-amino-2-methylpyridin-3-yl)-2′-(2,6-difluoro-3,5-dimethoxyphenyl)-1′H-spiro[cyclopropane-1,4′-[2,7]naphthyridin]-3′(2′H)-one] | >1 | – | > 200 | – | 30 to 200 | > 200 | > 200 | > 200 | > 200 | >25 | >10 | >10 | >50 | >25 | >25 | 30 to 200 | > 200
COc1cc(OC)c(F)c(N2Cc3cnc(-c4cn(C)nc4C)cc3N(c3ccc(F)c(F)c3)C2=O)c1F [Example 102, 3-(2,6-difluoro-3,5-dimethoxyphenyl)-1-(3,4-difluorophenyl)-7-(1,3-dimethyl-1H-pyrazol-4-yl)-3,4-dihydropyrido[4,3-d]pyrimidin-2(1H)-one] | >3 | >10 | 10 to 30 | 30 to 200 | 30 to 200 | 10 to 30 | – | – | – | – | – | – | – | – | – | – | –
COc1cc(OC)c(F)c(N2Cc3cnc(-c4cn(C)nc4C)cc3N(C3CCCC3)C2=O)c1F [Example 32, 1-cyclopentyl-3-(2,6-difluoro-3,5-dimethoxyphenyl)-7-(1,3-dimethyl-1H-pyrazol-4-yl)-3,4-dihydropyrido[4,3-d]pyrimidin-2(1H)-one] | >1 | >5 | < 10 | 10 to 30 | 10 to 30 | < 10 | – | – | – | – | – | – | – | – | – | – | –
CCN1C(=O)N(c2c(F)c(OC)cc(OC)c2F)Cc2cnc(-c3ccc(C(N)=O)nc3)cc21 [Example 184, 5-(3-(2,6-difluoro-3,5-dimethoxyphenyl)-1-ethyl-2-oxo-1,2,3,4-tetrahydropyrido[4,3-d]pyrimidin-7-yl)picolinamide] | >5 | >5 | < 10 | 10 to 30 | 10 to 30 | < 10 | – | – | – | – | – | – | – | – | – | – | –
CCN1C(=O)N(c2c(F)c(OC)cc(OC)c2F)Cc2cnc(-c3ccc(CN4CC[C@H](C#N)C4)cc3)cc21 [Example 25, (S)-1-(4-(3-(2,6-difluoro-3,5-dimethoxyphenyl)-1-ethyl-2-oxo-1,2,3,4-tetrahydropyrido[4,3-d]pyrimidin-7-yl)benzyl)pyrrolidine-3-carbonitrile] | >5 | >5 | < 10 | 10 to 30 | 10 to 30 | < 10 | – | – | – | – | – | – | – | – | – | – | –
COc1cc(OC)c(F)c(N2Cc3cnc(-c4cn(C)nc4C)cc3N(c3ccc4[nH]ncc4c3)C2=O)c1F [Example 134, 3-(2,6-difluoro-3,5-dimethoxyphenyl)-7-(1,3-dimethyl-1H-pyrazol-4-yl)-1-(1H-indazol-5-yl)-3,4-dihydropyrido[4,3-d]pyrimidin-2(1H)-one] | >3 | >5 | < 10 | 10 to 30 | 30 to 200 | < 10 | – | – | – | – | – | – | – | – | – | – | –
COc1cc(OC)c(F)c(N2Cc3cnc(-c4cnn(CCCN5CCOCC5)c4)cc3C3(CC3)C2=O)c1F [Example 151, 2′-(2,6-difluoro-3,5-dimethoxyphenyl)-6′-(1-(3-morpholinopropyl)-1H-pyrazol-4-yl)-1′H-spiro[cyclopropane-1,4′-[2,7]naphthyridin]-3′(2′H)-one] | >5 | >5 | < 10 | – | < 10 | < 10 | – | – | < 10 | – | – | – | – | – | – | – | –
COc1cc(OC)c(F)c(N2Cc3cnc(-c4cn(C)nc4C)cc3N(c3ccc(-c4nnc(C)o4)cc3)C2=O)c1F [Example 115, 3-(2,6-difluoro-3,5-dimethoxyphenyl)-7-(1,3-dimethyl-1H-pyrazol-4-yl)-1-(4-(5-methyl-1,3,4-oxadiazol-2-yl)phenyl)-3,4-dihydropyrido[4,3-d]pyrimidin-2(1H)-one] | >3 | >5 | < 10 | 30 to 200 | 30 to 200 | < 10 | – | – | – | – | – | – | – | – | – | – | –
COc1cc(OC)c(F)c(N2Cc3cnc(-c4cn(C)nc4C)cc3N(c3ccc4ncsc4c3)C2=O)c1F [Example 41, 1-(1,3-benzothiazol-6-yl)-3-(2,6-difluoro-3,5-dimethoxyphenyl)-7-(1,3-dimethyl-1H-pyrazol-4-yl)-3,4-dihydropyrido[4,3-d]pyrimidin-2(1H)-one] | >1 | >5 | 10 to 30 | 30 to 200 | 30 to 200 | 10 to 30 | – | – | – | – | – | – | – | – | – | – | –
COc1cc(OC)c(F)c(N2Cc3cnc(-c4cc(N)ccc4C#N)cc3C3(CC3)C2=O)c1F [Example 3, 4-amino-2-(2′-(2,6-difluoro-3,5-dimethoxyphenyl)-3′-oxo-2′,3′-dihydro-1′H-spiro[cyclopropane-1,4′-[2,7]naphthyridine]-6′-yl)benzonitrile] | – | – | > 200 | – | 10 to 30 | > 200 | > 200 | > 200 | > 200 | >25 | >25 | >25 | >25 | >25 | >10 | 10 to 30 | > 200
COc1cc(OC)c(F)c(N2Cc3cnc(-c4cn(C)nc4C)cc3N(Cc3ccncn3)C2=O)c1F [Example 65, 3-(2,6-difluoro-3,5-dimethoxyphenyl)-7-(1,3-dimethyl-1H-pyrazol-4-yl)-1-(pyrimidin-4-ylmethyl)-3,4-dihydropyrido[4,3-d]pyrimidin-2(1H)-one] | >5 | >10 | < 10 | 30 to 200 | 30 to 200 | < 10 | – | – | – | – | – | – | – | – | – | – | –
COc1cc(OC)c(F)c(N2Cc3cnc(-c4ccncc4)cc3C3(CC3)C2=O)c1F [Example 185, 2′-(2,6-difluoro-3,5-dimethoxyphenyl)-6′-(pyridin-4-yl)-1′H-spiro[cyclopropane-1,4′-[2,7]naphthyridin]-3′(2′H)-one] | >3 | >3 | < 10 | 10 to 30 | 10 to 30 | < 10 | – | – | – | – | – | – | – | – | – | – | –
CNC(=O)c1ccc(-c2cc3c(cn2)CN(c2c(F)c(OC)cc(OC)c2F)C(=O)C32CC2)cc1 [Example 19, 4-(2′-(2,6-difluoro-3,5-dimethoxyphenyl)-3′-oxo-2′,3′-dihydro-1′H-spiro[cyclopropane-1,4′-[2,7]naphthyridine]-6′-yl)-N-methylbenzamide] | >5 | – | < 10 | 10 to 30 | < 10 | < 10 | – | – | – | – | – | – | – | – | – | – | –
COc1cc(OC)c(F)c(N2Cc3cnc(-c4cn(CCN(C)C)nc4C)cc3C3(CC3)C2=O)c1F [Example 164, 2′-(2,6-difluoro-3,5-dimethoxyphenyl)-6′-(1-(2-(dimethylamino)ethyl)-3-methyl-1H-pyrazol-4-yl)-1′H-spiro[cyclopropane-1,4′-[2,7]naphthyridin]-3′(2′H)-one] | >3 | >3 | 10 to 30 | 30 to 200 | 30 to 200 | 10 to 30 | – | – | – | – | – | – | – | – | – | – | –
COc1cc(OC)c(F)c(N2Cc3cnc(-c4cn(C)nc4C)cc3N(c3ccn(C)n3)C2=O)c1F [Example 100, 3-(2,6-difluoro-3,5-dimethoxyphenyl)-7-(1,3-dimethyl-1H-pyrazol-4-yl)-1-(1-methyl-1H-pyrazol-3-yl)-3,4-dihydropyrido[4,3-d]pyrimidin-2(1H)-one] | >5 | >5 | 10 to 30 | 30 to 200 | 30 to 200 | 10 to 30 | – | – | – | – | – | – | – | – | – | – | –
COc1cc(OC)c(F)c(N2Cc3cnc(-c4cncc(Cl)c4)cc3C3(CC3)C2=O)c1F [Example 11, 6′-(5-chloropyridin-3-yl)-2′-(2,6-difluoro-3,5-dimethoxyphenyl)-1′H-spiro[cyclopropane-1,4′-[2,7]naphthyridin]-3′(2′H)-one] | >1 | – | > 200 | – | 10 to 30 | > 200 | 30 to 200 | > 200 | > 200 | >50 | >20 | >25 | >25 | >25 | >10 | 10 to 30 | > 200
